Assay results: US11000033B2, “Ketone or oxime compound, and herbicide” (NISSAN CHEMICAL CORPORATION, priority 2014, dated 2021)

Columns and labels:
Format in all cases: in vivo
soybean [1] = assay: Test Example 4: effect on crop by soil treatment (symbol d); details: for d: soybean, effect on crop grade: application herbicide amount 320 g/ha
Procedure, shortened: (§1)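 Plants grew in a 25° C. to 30° C. greenhouse after spot-sowing of seeds, including beet, rapeseed, wheat and rice, into sterilized diluvial soil under roughly 1.5 cm of cover soil.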

[2] = tested on: Echinochloa crus-galli var. crus-galli; assay: Test Example 5: herbicidal effect by foliage application, plastic box (symbol H); details: 320 g/ha, 3 weeks after application
Procedure, shortened: (§2)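 Leaf-applied emulsion, water-diluted to a preset herbicide dose, on two-week-old seedlings raised in a 25° C. to 30° C. greenhouse; injury rated at 3 weeks using earlier criteria.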

Amaranthus retroflexus [3] = assay: Test Example 5: herbicidal effect by foliage application, plastic box (symbol N); details: 320 g/ha, 3 weeks after application
Procedure, shortened: as §2

wheat = assay: Test Example 4: effect on crop by soil treatment (symbol e); details: for e: wheat, effect on crop grade: application herbicide amount 320 g/ha
Procedure, shortened: as §1

Chenopodium album [4] = assay: Test Example 5: herbicidal effect by foliage application, plastic box (symbol O); details: 320 g/ha, 3 weeks after application
Procedure, shortened: as §2

Avena fatua = assay: Test Example 4: herbicidal effect by soil treatment (symbol I)
Procedure, shortened: (§3)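 Seeds were sown in sterilized diluvial soil, covered with about 1.5 cm of soil, and the soil surface was sprayed with a water-diluted emulsion of the compound at a predetermined rate. Plants grew in a greenhouse at 25° C. to 30° C.; effects were scored visually 3 weeks after application.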

Abutilon theophrasti = assay: Test Example 5: herbicidal effect by foliage application, plastic box (symbol M); details: 320 g/ha, 3 weeks after application
Procedure, shortened: as §2

Chenopodium album [5] = assay: Test Example 4: herbicidal effect by soil treatment (symbol O)
Procedure, shortened: as §3

soybean [6] = assay: Test Example 5: effect on crop by foliage application, plastic box (symbol d); details: 320 g/ha, 3 weeks after application
Procedure, shortened: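 In a plastic box 7 cm deep filled with sterilized diluvial soil, seeds of crops and weeds such as Digitaria ciliaris, Avena fatua and Amaranthus retroflexus are sown in spots and covered with about 1.5 cm of soil before greenhouse growth at 25–30° C.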

[7] = tested on: Echinochloa crus-galli var. crus-galli; assay: Test Example 3: herbicidal effect by foliage application, Wagner pot (symbol H); details: application herbicide amount 320 g/ha
Procedure, shortened: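 Steps: fill pot with alluvial soil; add water to 0.1–0.5 cm depth; sow weed and rice seed; grow 14 days at 25–30 °C; spray diluted emulsion over the leaves; rate effect after 3 weeks.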

Apera spica-venti = assay: Test Example 4: herbicidal effect by soil treatment (symbol L)
Procedure, shortened: as §3

Galium spurium = assay: Test Example 5: herbicidal effect by foliage application, plastic box (symbol Q); details: 320 g/ha, 3 weeks after application
Procedure, shortened: as §2

Setaria viridis [8] = assay: Test Example 4: herbicidal effect by soil treatment (symbol G)
Procedure, shortened: as §3

Setaria viridis [9] = assay: Test Example 5: herbicidal effect by foliage application, plastic box (symbol G); details: 320 g/ha, 3 weeks after application
Procedure, shortened: as §2

Amaranthus retroflexus [10] = assay: Test Example 4: herbicidal effect by soil treatment (symbol N)
Procedure, shortened: as §3

beet = assay: Test Example 4: effect on crop by soil treatment (symbol f); details: for f: beet, effect on crop grade: application herbicide amount 320 g/ha
Procedure, shortened: as §1

Scirpus juncoides = assay: Test Example 1: herbicidal activity, application before weed generation in submerged conditions (symbol B); details: application herbicide amount 320 g/ha
Procedure, shortened: (§4)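 Pre-emergence, paddy conditions: emulsifiable formulation diluted in water, dosed onto floodwater (4 cm depth) on sowing day. Alluvial soil; weeds sown mixed; rice transplanted at 2.5-leaf stage. Greenhouse 25–30 °C, 3 wk. Score 0–5 (5 = ≥90% kill, 0 = ≤5%).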

Monochoria vaginalis = assay: Test Example 1: herbicidal activity, application before weed generation in submerged conditions (symbol C); details: application herbicide amount 320 g/ha
Procedure, shortened: as §4

Lolium multiflorum Lam. = assay: Test Example 4: herbicidal effect by soil treatment (symbol K)
Procedure, shortened: as §3

[11] = application herbicide amount 320 g/ha

| Structure (SMILES) | d: soybean, effect on crop grade (soybean [1]) | H: Echinochloa crus-galli var. crus-galli, herbicidal effect grade [2] | N: Amaranthus retroflexus, herbicidal effect grade (Amaranthus retroflexus [3]) | e: wheat, effect on crop grade (wheat) | O: Chenopodium album, herbicidal effect grade (Chenopodium album [4]) | I: Avena fatua, herbicidal effect grade (Avena fatua; [11]) | M: Abutilon theophrasti, herbicidal effect grade (Abutilon theophrasti) | O: Chenopodium album, herbicidal effect grade (Chenopodium album [5]; [11]) | d: soybean, effect on crop grade (soybean [6]) | herbicidal effect on H (Echinochloa crus-galli var. crus-galli), grade 0-5 [7] | L: Apera spica-venti, herbicidal effect grade (Apera spica-venti; [11]) | Q: Galium spurium, herbicidal effect grade (Galium spurium) | G: Setaria viridis, herbicidal effect grade (Setaria viridis [8]; [11]) | G: Setaria viridis, herbicidal effect grade (Setaria viridis [9]) | N: Amaranthus retroflexus, herbicidal effect grade (Amaranthus retroflexus [10]; [11]) | f: beet, effect on crop grade (beet) | Herbicidal effect grade, B: Scirpus juncoides (Scirpus juncoides) | Herbicidal effect grade, C: Monochoria vaginalis (Monochoria vaginalis) | K: Lolium multiflorum Lam., herbicidal effect grade (Lolium multiflorum Lam.; [11]) | also measured |
| --- | --- | --- | --- | --- | --- | --- | --- | --- | --- | --- | --- | --- | --- | --- | --- | --- | --- | --- | --- | --- |
| CON=C(C)CC1CC(O)=C(c2c(C)cc(-c3ccc(OC)cc3)cc2C)C1=O (mixture of isomers) [6-017] | 0 (Herbicidal ratio of 5% or lower (almost no effect)) | 5 (Herbicidal ratio of 90% or more (almost completely withered)) | 0 (Herbicidal ratio of 5% or lower (almost no effect)) | 0 (Herbicidal ratio of 5% or lower (almost no effect)) | 4 (Herbicidal ratio of 70% or higher and lower than 90%) | 0 (Herbicidal ratio of 5% or lower (almost no effect)) | 0 (Herbicidal ratio of 5% or lower (almost no effect)) | 0 (Herbicidal ratio of 5% or lower (almost no effect)) | 0 (Herbicidal ratio of 5% or lower (almost no effect)) | 5 (Herbicidal ratio of 90% or more (almost completely withered)) | 5 (Herbicidal ratio of 90% or more (almost completely withered)) | 0 (Herbicidal ratio of 5% or lower (almost no effect)) | 5 (Herbicidal ratio of 90% or more (almost completely withered)) | 5 (Herbicidal ratio of 90% or more (almost completely withered)) | 1 (Herbicidal ratio of 5% or higher and lower than 20%) | 0 (Herbicidal ratio of 5% or lower (almost no effect)) | 1 (Herbicidal ratio of 5% or higher and lower than 20%) | 0 (Herbicidal ratio of 5% or lower (almost no effect)) | 4 (Herbicidal ratio of 70% or higher and lower than 90%) |  |
| CON=C(C)CC1CC(O)=C(c2c(C)cc(OCC(F)(F)F)cc2C)C1=O (stereo not shown) [6-049] | 0 (Herbicidal ratio of 5% or lower (almost no effect)) | 5 (Herbicidal ratio of 90% or more (almost completely withered)) | 4 (Herbicidal ratio of 70% or higher and lower than 90%) | 5 (Herbicidal ratio of 90% or more (almost completely withered)) | 5 (Herbicidal ratio of 90% or more (almost completely withered)) | 5 (Herbicidal ratio of 90% or more (almost completely withered)) | 3 (Herbicidal ratio of 40% or higher and lower than 70%) | 4 (Herbicidal ratio of 70% or higher and lower than 90%) | 2 (Herbicidal ratio of 20% or higher and lower than 40%) | 5 (Herbicidal ratio of 90% or more (almost completely withered)) | 5 (Herbicidal ratio of 90% or more (almost completely withered)) | 5 (Herbicidal ratio of 90% or more (almost completely withered)) | 5 (Herbicidal ratio of 90% or more (almost completely withered)) | 5 (Herbicidal ratio of 90% or more (almost completely withered)) | 4 (Herbicidal ratio of 70% or higher and lower than 90%) | 3 (Herbicidal ratio of 40% or higher and lower than 70%) | 5 (Herbicidal ratio of 90% or more (almost completely withered)) | 4 (Herbicidal ratio of 70% or higher and lower than 90%) | 5 (Herbicidal ratio of 90% or more (almost completely withered)) |  |
| CON=C(C)CC1CC(O)=C(c2c(C)cc(C(C)=O)cc2C)C1=O (stereo not shown) [6-026] | 0 (Herbicidal ratio of 5% or lower (almost no effect)) | 5 (Herbicidal ratio of 90% or more (almost completely withered)) | 0 (Herbicidal ratio of 5% or lower (almost no effect)) | 0 (Herbicidal ratio of 5% or lower (almost no effect)) | 0 (Herbicidal ratio of 5% or lower (almost no effect)) | 0 (Herbicidal ratio of 5% or lower (almost no effect)) | 0 (Herbicidal ratio of 5% or lower (almost no effect)) | 0 (Herbicidal ratio of 5% or lower (almost no effect)) | 0 (Herbicidal ratio of 5% or lower (almost no effect)) | 5 (Herbicidal ratio of 90% or more (almost completely withered)) | 0 (Herbicidal ratio of 5% or lower (almost no effect)) | 0 (Herbicidal ratio of 5% or lower (almost no effect)) | 4 (Herbicidal ratio of 70% or higher and lower than 90%) | 5 (Herbicidal ratio of 90% or more (almost completely withered)) | 2 (Herbicidal ratio of 20% or higher and lower than 40%) | 0 (Herbicidal ratio of 5% or lower (almost no effect)) | 0 (Herbicidal ratio of 5% or lower (almost no effect)) | 0 (Herbicidal ratio of 5% or lower (almost no effect)) | 1 (Herbicidal ratio of 5% or higher and lower than 20%) |  |
| CON=C(C)CC1CC(OC(=O)OCc2ccccc2)=C(c2c(C)cc(C)cc2C)C1=O (stereo not shown) [1-145] |  |  |  |  |  |  |  |  |  | 5 (Herbicidal ratio of 90% or more (almost completely withered)) |  |  |  |  |  |  | 5 (Herbicidal ratio of 90% or more (almost completely withered)) | 1 (Herbicidal ratio of 5% or higher and lower than 20%) |  | d: soybean, effect grade on crop (soybean [1]; 320 g/ha): 0 (Herbicidal ratio of 5% or lower (almost no effect)); H: Echinochloa crus-galli var. crus-galli, herbicidal effect (criteria 0-5) [2]: 5 (Herbicidal ratio of 90% or more (almost completely withered)); N: Amaranthus retroflexus, herbicidal effect (criteria 0-5) (Amaranthus retroflexus [3]): 0 (Herbicidal ratio of 5% or lower (almost no effect)); e: wheat, effect grade on crop (wheat; 320 g/ha): 5 (Herbicidal ratio of 90% or more (almost completely withered)); O: Chenopodium album, herbicidal effect (criteria 0-5) (Chenopodium album [4]): 1 (Herbicidal ratio of 5% or higher and lower than 20%); I: Avena fatua, herbicidal effect grade (Avena fatua; 320 g/ha): 4 (Herbicidal ratio of 70% or higher and lower than 90%); M: Abutilon theophrasti, herbicidal effect (criteria 0-5) (Abutilon theophrasti): 3 (Herbicidal ratio of 40% or higher and lower than 70%); O: Chenopodium album, herbicidal effect grade (Chenopodium album [5]; 320 g/ha): 0 (Herbicidal ratio of 5% or lower (almost no effect)); d: soybean, effect on crop (criteria 0-5) (soybean [6]): 2 (Herbicidal ratio of 20% or higher and lower than 40%); L: Apera spica-venti, herbicidal effect grade (Apera spica-venti; 320 g/ha): 5 (Herbicidal ratio of 90% or more (almost completely withered)); Q: Galium spurium, herbicidal effect (criteria 0-5) (Galium spurium): 2 (Herbicidal ratio of 20% or higher and lower than 40%); G: Setaria viridis, herbicidal effect grade (Setaria viridis [8]; 320 g/ha): 5 (Herbicidal ratio of 90% or more (almost completely withered)); G: Setaria viridis, herbicidal effect (criteria 0-5) (Setaria viridis [9]): 5 (Herbicidal ratio of 90% or more (almost completely withered)); N: Amaranthus retroflexus, herbicidal effect grade (Amaranthus retroflexus [10]; 320 g/ha): 4 (Herbicidal ratio of 70% or higher and lower than 90%); f: beet, effect grade on crop (beet; 320 g/ha): 0 (Herbicidal ratio of 5% or lower (almost no effect)); K: Lolium multiflorum Lam., herbicidal effect grade (Lolium multiflorum Lam.; 320 g/ha): 5 (Herbicidal ratio of 90% or more (almost completely withered)) |
